{"source": "ChEMBL document CHEMBL1136909", "about": "“Discovery of a novel HCV helicase inhibitor by a de novo drug design approach” (Bioorg Med Chem Lett, 2009)", "key": {"Hepacivirus hominis": {"system": "Hepacivirus hominis", "assay": "Inhibition of HCV recombinant NS3 helicase at 100 uM"}, "[1]": {"assay": "Inhibition of HCV recombinant NS3 helicase", "design": "species or system Hepacivirus hominis"}, "[2]": {"assay": "Cytotoxicity against human Huh5-2 cells by MTS assay", "type": "cell-based, Huh-5-2"}, "Hepatitis C virus": {"system": "Hepatitis C virus", "assay": "Antiviral activity against HCV in human Huh5-2 cells assessed as inhibition of HCV subgenomic replication", "type": "functional, organism-based, Hepacivirus hominis", "details": "Huh-5-2"}}, "note": "Activity calls are given as the source filed them. The calls are words filed in the database; no cut-off is given here."}
{"compound": "COC(=O)c1ccc(CNC(=O)c2cc(/C=C/C(C)=O)c[nH]2)cc1", "values": [{"measurement": "Activity", "setting": "Hepacivirus hominis", "value": "inactive"}]}
{"compound": "COC(=O)c1ccc(CNC(=O)c2ccc(/C=C/C(C)=O)[nH]2)cc1", "values": [{"measurement": "IC50", "setting": "[1]", "value": 260, "unit": "nM"}, {"measurement": "CC50", "setting": "[2]", "value": 10, "unit": "µg/mL"}, {"measurement": "EC50", "setting": "Hepatitis C virus", "value": 3, "unit": "µg/mL"}]}
